Assay results reported in patent US10231985B2, “Compounds and compositions comprising such compounds for the prevention or treatment of dyslipidaemias” (CENTRE NATIONAL DE LA RECHERCHE SCIENTIFIQUE, priority 2013, dated 2019).

Key:
MIN6 pancreatic β-cells = assay: Monitoring of insulin maturation (Western blot, anti-insulin); type: cell-based, mouse; conditions: MIN6, 400 μM palmitic acid 48 hours, 200 μM compound during final 24 hours
Method: Pancreatic β-cells, MIN6, were grown under control conditions (0) or, alternatively, in the presence of an exogenous source of 400 μM palmitic acid (P), for 48 hours, as described by Boslem et al. (2011), in order to generate lipointoxication conditions. During the final 24 hours of growth, 200 μM OAG, LPA or mannide monooleate was added or not as mentioned.
In the manner of that described above for the lipointoxication of BRIN-BD11 cells, the MIN6 cell line is grown in complete DMEM-High Glucose medium […], supplemented with 10% (v/v) fetal calf serum (FCS), 15 mM HEPES, 100 U/ml penicillin and 100 μg/ml streptomycin, and lipointoxication is induced by exposure to 400 μM palmitic acid, coupled to BSA (0.92% (w/v) final), for 48 hours, with or without the addition of the compound of interest (see Boslem et al., 2011). The cells are then collected and a Western blot is carried out as indicated above, using anti-insulin antibodies in order to follow the maturation of proinsulin to insulin.

[1] = system: unfolded protein response (UPR); assay: Test of UPR triggering (4xUPRE-lacZ, β-galactosidase activity) in hem1Δ yeast; type: cell-based, Saccharomyces cerevisiae; conditions: 200 μM, liquid medium inducing SFA accumulation
Excerpt: A plasmid construction bearing a fusion gene, corresponding to the coding sequence of the lacZ gene placed under the control of an artificial promoter containing four UPR elements (UPRE), was introduced into a hem1Δ yeast strain, as described by Pineau et al. (2009). During UPR induction, the transcription factor Hac1p/XBP1p is activated and binds to the fusion gene UPRE, leading to the transcription of the lacZ gene. As lacZ encodes β-galactosidase, the level of UPR induction is thus measured by detecting the corresponding enzyme activity. The hem1Δ yeast strain was grown in liquid medium inducing SFA accumulation with no other addition (0), or in the same medium supplemented with 200 μM oleic acid, OAG or LPA, as indicated.
The hem1Δ strain transformed by the plasmid pPW344 [2μ URA3 4×UPRE-lacZ (Patil et al., 2004)] is grown in liquid medium (YPG^A, YPG, or YPG+200 μM compound to be tested), under aerobic conditions, with shaking at 28° C. for 7 hours, from an initial cell concentration of 2×10^6 cells/ml. At the conclusion of the culture, 10^8 cells are collected in order to quantify the β-galactosidase (β-gal) activity resulting from the expression of the lacZ transgene (in the case of UPR activation). […] For each sample, β-gal activity (U) is calculated using the formula U=(1000×[OD420 nm−(1.75×OD550 nm)])/(t×V×OD600 nm), expressed in arbitrary units.

[2] = system: BRIN-BD11 pancreatic β-cells; assay: Cell viability of palmitic acid-lipointoxicated pancreatic β-cells (propidium iodide, flow cytometry); type: cell-based, rat; conditions: BRIN-BD11, 200 μM palmitic acid
Method: Pancreatic β-cells, BRIN-BD11, were grown under control conditions or in the presence of an exogenous source of saturated fatty acid (200 μM palmitic acid), as described by Dhayal & Morgan (2011), in order to generate lipointoxication conditions, with or without the addition of OAG. A) The proportion of dead cells was estimated in the absence (control) or presence of palmitic acid, for increasing concentrations of OAG. B) eIF2α phosphorylation levels were also analyzed under the various conditions by Western blot, in the presence or absence (Ø) of OAG, and were normalized to total eIF2α.
The lipid species are prepared in ethanol before being complexed with bovine serum albumin (BSA, first depleted of fatty acids) by incubation for 1 hour at 37° C. The palmitic acid stock solution is obtained by adding one volume of ethanol before the whole is heated to 70° C. for homogenization. OAG and LPA solutions are prepared in 100% ethanol at room temperature. For the incubations of mammalian cells, the final BSA and ethanol concentrations in the culture medium are kept at 1% and 0.5% (w/v), respectively.
The rat pancreatic β-cell line (BRIN-BD11) is grown in complete RPMI-1640 medium, containing 11 mM glucose and supplemented with 10% (v/v) fetal calf serum (FCS), 2 mM L-glutamine, 100 U/ml penicillin and 100 μg/ml streptomycin. For each experiment, the cells are first seeded at a density of 0.5×10^5 cells/ml in 6-well plates for 24 hours. Thereafter, the complete medium is replaced by an equivalent lacking FCS but containing the lipid reagents of interest, at the desired concentrations, complexed with BSA. Under the control conditions, identical amounts of BSA and ethanol are then used. […] After incubation on ice for 10 minutes, the samples thus obtained are analyzed by flow cytometry. A Beckman Coulter EPICS XL MCL is used for the quantification, an FL3 channel is used to detect the emissions of the PI intercalated in the DNA, and the analysis is carried out using the EXPO32 ADC software (Applied Cytometry Systems, V 1.1 build 207).

SMILES | Maturation of proinsulin to insulin (MIN6 pancreatic β-cells) | UPR induction level (β-galactosidase activity) [1] | Apoptosis / proportion of dead cells of pancreatic β-cells [2]
CCCCCCCC/C=C\CCCCCCCC(=O)OC[C@@H](O)COP(=O)(O)O [LPA, 1-oleoyl-sn-glycerol-3-phosphate] | only mannide monooleate restores | reduce the unfolded protein response (UPR) | 
CCCCCCCC/C=C\CCCCCCCC(=O)OC[C@H](CO)OC(C)=O [OAG, 1-oleoyl-2-acetyl-sn-glycerol] | only mannide monooleate restores | reduce the unfolded protein response (UPR) | prevents apoptosis
